# Measurements reported in US4543408A, “Stable S-adenosylmethionine salts, the process for their preparation, and therapeutic compositions which contain them as active principle” (Bioresearch S.p.A., priority 1981, dated 1985).
# Assays:
# [1] = format: physicochemical; settings: solid salt storage; for degradation at 45° C. after 60 days: 1440 h; for degradation at 45° C. after 120 days: 2880 h; for degradation at 45° C. after 180 days: 4320 h; for degradation at 45° C. after 240 days: 5760 h; for degradation at 45° C. after 360 days: 8640 h
# Procedure: Stability tests were carried out on the salts prepared in the described manner, by keeping the product in an oven temperature controlled at 45° C. and determining the percentage of residual salt at fixed times. The tests were carried out in comparison with SAM.nHCl salts in which n=1,2 and 3, prepared by the known method (U.S. Pat. No. 2,969,353), and in comparison with SAM.nH2 SO4 salts in which n=0.5,1 and 1.5, also prepared by the known method (West German patent application No. 1,803,978).
# The following tables show the percentages of decomposed salt at the times indicated:
# Analytical conditions used:
# SAM retention time: about 400 seconds.
# Residual moisture = format: physicochemical
# physchem = settings: water
# [2] = Wide pharmacological screening trial; format: in vivo; settings: independent of the anion bonded to the SAM
# From the text: It was established that the activity of the new salts depends substantially on the capacity of the SAM^+ ion released in the organism to act as a donor of methyl groups, as the natural substrate of a large number of transmethylase enzymes which catalyse fundamental reactions of the lipid, protide and glucide metabolism.
# [3] = prior-art salts; cited from earlier work
# [4] = Tables 1-4, salts lyophilised without support
Compound,degradation at 45° C. after 60 days [1],degradation at 45° C. after 120 days [1],degradation at 45° C. after 180 days [1],degradation at 45° C. after 240 days [1],degradation at 45° C. after 360 days [1],residual moisture (Residual moisture; [4]),further results
"C[S+](CCC(N)C(=O)[O-])CC1OC(n2cnc3c(N)ncnc32)C(O)C1O (stereo not drawn) [SAM.1.5H2 SO4.nHCl, n=1]",5%,10%,14%,17%,20%,1%,
"C[S+](CCC(N)C(=O)[O-])CC1OC(n2cnc3c(N)ncnc32)C(O)C1O (stereo not drawn) [SAM.1.5H2 SO4.nHCl, n=2]",,1.5%,3%,4.5%,5%,1.5%,"residual moisture (Residual moisture; Tables 1-4, salts lyophilised without support, listed as SAM.2HCl.nH2 SO4, n=1.5): 1.5%"
"C[S+](CCC(N)C(=O)[O-])CC1OC(n2cnc3c(N)ncnc32)C(O)C1O (stereo not drawn) [SAM.1.5H2 SO4.nHCl, n=3]",5%,10%,14%,17%,20%,2%,
C[S+](CCC(N)C(=O)[O-])CC1OC(n2cnc3c(N)ncnc32)C(O)C1O (stereo not drawn) [SAM.2.5H2 SO4],,1.5%,3%,4.5%,5%,,"solubility (physchem): > 200 mg/mL; residual moisture (Residual moisture; Tables 1-4, salts lyophilised without support, listed as SAM.nH2 SO4, n=3.5): 1.5%"
C[S+](CCC(N)C(=O)[O-])CC1OC(n2cnc3c(N)ncnc32)C(O)C1O (stereo not drawn) [SAM.2H2 SO4.0.4H2 O],5%,10%,14%,17%,20%,,"residual moisture (Residual moisture; Tables 1-4, salts lyophilised without support, listed as SAM.nH2 SO4, n=2): 1%"
"C[S+](CCC(N)C(=O)[O-])CC1OC(n2cnc3c(N)ncnc32)C(O)C1O (stereo not drawn) [SAM.2HCl.nH2 SO4, n=0.5, reference compound]",30%,60%,80%,100%,100%,0.8%,
"C[S+](CCC(N)C(=O)[O-])CC1OC(n2cnc3c(N)ncnc32)C(O)C1O (stereo not drawn) [SAM.2HCl.nH2 SO4, n=1]",5%,10%,14%,17%,20%,1%,
"C[S+](CCC(N)C(=O)[O-])CC1OC(n2cnc3c(N)ncnc32)C(O)C1O (stereo not drawn) [SAM.2HCl.nH2 SO4, n=2]",5%,10%,14%,17%,20%,2%,
C[S+](CCC(N)C(=O)[O-])CC1OC(n2cnc3c(N)ncnc32)C(O)C1O (stereo not drawn) [SAM.3H2 SO4.0.7H2 O],5%,10%,14%,17%,20%,,"residual moisture (Residual moisture; Tables 1-4, salts lyophilised without support, listed as SAM.nH2 SO4, n=3): 2%"
C[S+](CCC(N)C(=O)[O-])CC1OC(n2cnc3c(N)ncnc32)C(O)C1O (stereo not drawn) [SAM.4HCl.0.4H2 O],5%,10%,14%,17%,20%,,"residual moisture (Residual moisture; Tables 1-4, salts lyophilised without support, listed as SAM.nHCl, n=4): 1%"
C[S+](CCC(N)C(=O)[O-])CC1OC(n2cnc3c(N)ncnc32)C(O)C1O (stereo not drawn) [SAM.5HCl],,1.5%,3%,4.5%,5%,,"activity and toxicity characteristics [2]: highly interesting activity and toxicity characteristics; residual moisture (Residual moisture; Tables 1-4, salts lyophilised without support, listed as SAM.nHCl, n=5): 1.5%; residual moisture (Residual moisture; lyophilised without support, with mannitol or with Aerosil): 1.5%"
C[S+](CCC(N)C(=O)[O-])CC1OC(n2cnc3c(N)ncnc32)C(O)C1O (stereo not drawn) [SAM.6HCl.0.7H2 O],5%,10%,14%,17%,20%,,"residual moisture (Residual moisture; Tables 1-4, salts lyophilised without support, listed as SAM.nHCl, n=6): 2%"
"C[S+](CCC(N)C(=O)[O-])CC1OC(n2cnc3c(N)ncnc32)C(O)C1O (stereo not drawn) [SAM.nH2 SO4, n=0.5, reference compound]",100%,100%,100%,100%,100%,0.2%,
"C[S+](CCC(N)C(=O)[O-])CC1OC(n2cnc3c(N)ncnc32)C(O)C1O (stereo not drawn) [SAM.nH2 SO4, n=1, reference compound]",80%,100%,100%,100%,100%,0.5%,
"C[S+](CCC(N)C(=O)[O-])CC1OC(n2cnc3c(N)ncnc32)C(O)C1O (stereo not drawn) [SAM.nH2 SO4, n=1.5, reference compound]",30%,60%,80%,100%,100%,0.8%,
"C[S+](CCC(N)C(=O)[O-])CC1OC(n2cnc3c(N)ncnc32)C(O)C1O (stereo not drawn) [SAM.nHCl, n=1, reference compound]",100%,100%,100%,100%,100%,0.2%,
"C[S+](CCC(N)C(=O)[O-])CC1OC(n2cnc3c(N)ncnc32)C(O)C1O (stereo not drawn) [SAM.nHCl, n=2, reference compound]",80%,100%,100%,100%,100%,0.5%,
"C[S+](CCC(N)C(=O)[O-])CC1OC(n2cnc3c(N)ncnc32)C(O)C1O (stereo not drawn) [SAM.nHCl, n=3, reference compound]",30%,60%,80%,100%,100%,0.8%,
"C[S+](CCC(N)C(=O)[O-])CC1OC(n2cnc3c(N)ncnc32)C(O)C1O (stereo not drawn) [disulphatediparatoluene sulphonate, SAM disulphatediparatoluene sulphonate]",,,,,,,temperature up to which the salt is stable [3]: up to 45 °C
"C[S+](CCC(N)C(=O)[O-])CC1OC(n2cnc3c(N)ncnc32)C(O)C1O (stereo not drawn) [triparatoluene sulphonate, SAM triparatoluene sulphonate]",,,,,,,temperature up to which the salt is stable [3]: up to 25 °C
